{"source": "BindingDB's records for doi:10.1021/jm00039a024", "about": "(Eisai, 1994)", "biological_target": "cGMP-specific 3',5'-cyclic phosphodiesterase, PDE5 (Sus scrofa)", "experiment": "Inhibitory activity against cGMP-phosphodiesterase from porcine aorta", "data": [{"smiles": "CSc1ccc2ncn(Cc3ccc4c(c3)OCO4)c(=O)c2c1", "note": "[3-Benzo[1,3]dioxol-5-ylmethyl-6-methylsulfanyl-3H-quinazolin-4-one]", "values": [{"measurement": "IC50", "result": 2300, "unit": "nM"}]}, {"smiles": "O=c1c2ccc(Cl)cc2ncn1Cc1ccc2c(c1)OCO2", "note": "[3-Benzo[1,3]dioxol-5-ylmethyl-7-chloro-3H-quinazolin-4-one]", "values": [{"measurement": "IC50", "result": 8700, "unit": "nM"}]}, {"smiles": "NC(=O)c1ccc2ncnc(NCc3ccc4c(c3)OCO4)c2c1", "note": "[4-[(Benzo[1,3]dioxol-5-ylmethyl)-amino]-quinazoline-6-carboxylic acid amide]", "values": [{"measurement": "IC50", "result": 770, "unit": "nM"}]}, {"smiles": "CN(C)C(=O)c1ccc2ncnc(NCc3ccc4c(c3)OCO4)c2c1", "note": "[4-[(Benzo[1,3]dioxol-5-ylmethyl)-amino]-quinazoline-6-carboxylic acid dimethylamide]", "values": [{"measurement": "IC50", "result": 2300, "unit": "nM"}]}, {"smiles": "CCOC(=O)c1ccc2ncnc(NCc3ccc4c(c3)OCO4)c2c1", "note": "[4-[(Benzo[1,3]dioxol-5-ylmethyl)-amino]-quinazoline-6-carboxylic acid ethyl ester]", "values": [{"measurement": "IC50", "result": 620, "unit": "nM"}]}, {"smiles": "COc1ccc2ncnc(NCc3ccc4c(c3)OCO4)c2c1OC", "note": "[Benzo[1,3]dioxol-5-ylmethyl-(5,6-dimethoxy-quinazolin-4-yl)-amine]", "values": [{"measurement": "IC50", "result": 730, "unit": "nM"}]}, {"smiles": "COc1cc(OC)c2ncnc(NCc3ccc4c(c3)OCO4)c2c1", "note": "[Benzo[1,3]dioxol-5-ylmethyl-(6,8-dimethoxy-quinazolin-4-yl)-amine]", "values": [{"measurement": "IC50", "result": 810, "unit": "nM"}]}, {"smiles": "CCOc1ccc2ncnc(NCc3ccc4c(c3)OCO4)c2c1", "note": "[Benzo[1,3]dioxol-5-ylmethyl-(6-ethoxy-quinazolin-4-yl)-amine]", "values": [{"measurement": "IC50", "result": 380, "unit": "nM"}]}, {"smiles": "CS(=O)(=O)c1ccc2ncnc(NCc3ccc4c(c3)OCO4)c2c1", "note": "[Benzo[1,3]dioxol-5-ylmethyl-(6-methanesulfonyl-quinazolin-4-yl)-amine]", "values": [{"measurement": "IC50", "result": 810, "unit": "nM"}]}, {"smiles": "COc1ccc2ncnc(NCc3ccc4c(c3)OCO4)c2c1", "note": "[Benzo[1,3]dioxol-5-ylmethyl-(6-methoxy-quinazolin-4-yl)-amine]", "values": [{"measurement": "IC50", "result": 230, "unit": "nM"}]}, {"smiles": "Cc1ccc2ncnc(NCc3ccc4c(c3)OCO4)c2c1", "note": "[Benzo[1,3]dioxol-5-ylmethyl-(6-methyl-quinazolin-4-yl)-amine]", "values": [{"measurement": "IC50", "result": 100, "unit": "nM"}]}, {"smiles": "COc1cc2ncnc(NCc3ccc4c(c3)OCO4)c2cc1SC", "note": "[Benzo[1,3]dioxol-5-ylmethyl-(7-methoxy-6-methylsulfanyl-quinazolin-4-yl)-amine]", "values": [{"measurement": "IC50", "result": 350, "unit": "nM"}]}, {"smiles": "OCc1ccc2ncnc(NCc3ccc4c(c3)OCO4)c2c1", "note": "[{4-[(Benzo[1,3]dioxol-5-ylmethyl)-amino]-quinazolin-6-yl}-methanol]", "values": [{"measurement": "IC50", "result": 930, "unit": "nM"}]}, {"smiles": "O=C(c1ccc2ncnc(NCc3ccc4c(c3)OCO4)c2c1)N1CCOCC1", "note": "[{4-[(Benzo[1,3]dioxol-5-ylmethyl)-amino]-quinazolin-6-yl}-morpholin-4-yl-methanone]", "values": [{"measurement": "IC50", "result": 2700, "unit": "nM"}]}]}
